This passage reports T/C results from PubChem BioAssay AID180 (DTP/NCI, 2004).

The test system of the experiment is BDF1 mice, Adenocarcinoma 755 s.c., tumor weight T/C. Briefly: NCI In Vivo Anticancer Drug Screen. Data for tumor model Adenocarcinoma 755 (subcutaneous) in B6D2F1 (BDF1) mice. To be noted: endpoint: mean tumor weight, higher = larger tumour. Here is the method:
The antitumor activity of compounds was measured in mice bearing transplantable tumors. Survival or tumor size were measured and the results are expressed as the measurement made in the treated group (T) divided by the measurement made in the vehicle treated control group (C). The tumor model used in this assay is Adenocarcinoma 755 (subcutaneous) in B6D2F1 (BDF1) mice

Several values for one entry are separate records, joined by “and”; a condition that tells them apart may be missing. Identical values can stand only once.

As for `Cn1cnc([N+](=O)[O-])c1Sc1ncnc2nc[nH]c12`, the T/C is 79 % of control (dose: 0.03 mg/kg/injection, schedule: Q01DX011 (oral), vehicle: other); 63 % of control (dose: 0.06 mg/kg/injection, schedule: Q01DX011 (oral), vehicle: other); 48 % of control (dose: 0.12 mg/kg/injection, schedule: Q01DX011 (oral), vehicle: other); 64 % of control (dose: 0.25 mg/kg/injection, schedule: Q01DX006 (iv), vehicle: other); 36 % of control (dose: 0.25 mg/kg/injection, schedule: Q01DX011 (oral), vehicle: other); 58 % of control (dose: 0.5 mg/kg/injection, schedule: Q01DX006 (iv), vehicle: other). For the same compound, the T/C is 40 % of control (dose: 0.5 mg/kg/injection, schedule: Q01DX011 (oral), vehicle: other); 16 % of control (dose: 1.0 mg/kg/injection, schedule: Q01DX006 (iv), vehicle: other); 5 % of control and 10 % of control (dose: 1.0 mg/kg/injection, schedule: Q01DX011 (oral), vehicle: other); 9 % of control (dose: 2.0 mg/kg/injection, schedule: Q01DX006 (iv), vehicle: other); 3 % of control (dose: 2.0 mg/kg/injection, schedule: Q01DX011 (ip), vehicle: other); 15 % of control and 36 % of control (dose: 2.5 mg/kg/injection, schedule: Q01DX011 (ip), vehicle: methylcellulose (MC)). The T/C is 2 % of control (dose: 2.5 mg/kg/injection, schedule: Q01DX011 (oral), vehicle: other); 56 % of control (dose: 3.1 mg/kg/injection, schedule: Q01DX001 (ip), vehicle: other); 3 % of control (dose: 4.0 mg/kg/injection, schedule: Q01DX006 (iv), vehicle: other); 3 % of control (dose: 4.0 mg/kg/injection, schedule: Q01DX011 (im), vehicle: other); 17 % of control (dose: 4.0 mg/kg/injection, schedule: Q01DX011 (iv), vehicle: other); 1 % of control (dose: 4.0 mg/kg/injection, schedule: Q01DX011 (sc), vehicle: other). Also, the T/C reads like this: (dose: 4.0 mg/kg/injection, schedule: Q#A X022 (ip), vehicle: other) 2 % of control; (dose: 5.0 mg/kg/injection, schedule: Q01DX011 (ip), vehicle: methylcellulose (MC)) 4 % of control and 7 % of control; (dose: 6.3 mg/kg/injection, schedule: Q01DX001 (ip), vehicle: other) 52 % of control; (dose: 8.0 mg/kg/injection, schedule: Q01DX011 (im), vehicle: other) 1 % of control; (dose: 8.0 mg/kg/injection, schedule: Q01DX011 (iv), vehicle: other) 2 % of control; (dose: 9.5 mg/kg/injection, schedule: Q01DX011 (ip), vehicle: methylcellulose (MC)) 2 % of control and 8 % of control. Besides, the T/C was 4 % of control and 7 % of control (dose: 10.0 mg/kg/injection, schedule: Q01DX011 (ip), vehicle: methylcellulose (MC)); 2 % of control (dose: 12.0 mg/kg/injection, schedule: Q03DX004 (ip), vehicle: other); 28 % of control (dose: 12.5 mg/kg/injection, schedule: Q01DX001 (ip), vehicle: other); 1 % of control (dose: 16.0 mg/kg/injection, schedule: Q01DX011 (iv), vehicle: other); 2 % of control (dose: 19.0 mg/kg/injection, schedule: Q01DX011 (ip), vehicle: methylcellulose (MC)); 7 % of control (dose: 20.0 mg/kg/injection, schedule: Q01DX011 (oral), vehicle: other). In addition, the T/C (dose: 25.0 mg/kg/injection, schedule: Q01DX001 (ip), vehicle: other) was 1 % of control and 2 % of control and 20 % of control; the T/C (dose: 28.0 mg/kg/injection, schedule: Q07DX002 (ip), vehicle: other) was 17 % of control; the T/C (dose: 38.0 mg/kg/injection, schedule: Q01DX011 (ip), vehicle: methylcellulose (MC)) was 2 % of control; the T/C (dose: 40.0 mg/kg/injection, schedule: Q01DX011 (oral), vehicle: other) is 9 % of control; the T/C (dose: 50.0 mg/kg/injection, schedule: Q01DX001 (ip), vehicle: other) was 41 % of control; the T/C (dose: 56.0 mg/kg/injection, schedule: Q07DX002 (ip), vehicle: other) was 3 % of control. Also, the T/C (dose: 96.0 mg/kg/injection, schedule: Q03DX004 (ip), vehicle: other) was 1 % of control; the T/C (dose: 100.0 mg/kg/injection, schedule: Q01DX001 (ip), vehicle: other) was 1 % of control; the T/C (dose: 112.0 mg/kg/injection, schedule: Q07DX002 (ip), vehicle: other) was 8 % of control; the T/C (dose: 200.0 mg/kg/injection, schedule: Q01DX001 (ip), vehicle: other) was 45 % of control.
`O=P(N1CCCC1)(N1CC1)N1CC1`: the T/C is 94 % of control and 75 % of control (dose: 0.2 mg/kg/injection, schedule: Q01DX011 (ip), vehicle: saline); 110 % of control (dose: 0.25 mg/kg/injection, schedule: Q01DX011 (ip), vehicle: carboxymethylcellulose (CMC)); 54 % of control and 79 % of control (dose: 0.5 mg/kg/injection, schedule: Q01DX011 (ip), vehicle: saline); 42 % of control (dose: 1.0 mg/kg/injection, schedule: Q01DX011 (ip), vehicle: carboxymethylcellulose (CMC)); 8 % of control and 21 % of control (dose: 1.0 mg/kg/injection, schedule: Q01DX011 (ip), vehicle: saline); 46 % of control (dose: 2.0 mg/kg/injection, schedule: Q01DX011 (ip), vehicle: carboxymethylcellulose (CMC)). Moreover, the T/C (dose: 2.0 mg/kg/injection, schedule: Q01DX011 (ip), vehicle: saline) was 3 % of control; the T/C (dose: 4.0 mg/kg/injection, schedule: Q01DX011 (ip), vehicle: carboxymethylcellulose (CMC)) is 23 % of control; the T/C (dose: 6.0 mg/kg/injection, schedule: Q01DX011 (ip), vehicle: carboxymethylcellulose (CMC)) was 8 % of control; the T/C (dose: 8.0 mg/kg/injection, schedule: Q01DX011 (ip), vehicle: carboxymethylcellulose (CMC)) is 11 % of control; the T/C (dose: 12.0 mg/kg/injection, schedule: Q01DX011 (ip), vehicle: saline) was 3 % of control.
As to `O=C(CCBr)N1CCC(CCC2CCN(C(=O)CCBr)CC2)CC1`, the T/C is 94 % of control (dose: 25.0 mg/kg/injection, schedule: Q01DX011 (ip), vehicle: methylcellulose (MC)); 68 % of control (dose: 75.0 mg/kg/injection, schedule: Q01DX011 (ip), vehicle: methylcellulose (MC)); 43 % of control (dose: 225.0 mg/kg/injection, schedule: Q01DX011 (ip), vehicle: methylcellulose (MC)).
Regarding `NC(=O)c1cc(N)nc(N)n1`, the T/C is 97 % of control (dose: 15.0 mg/kg/injection, schedule: Q01DX011 (ip), vehicle: methylcellulose (MC)); 106 % of control (dose: 31.0 mg/kg/injection, schedule: Q01DX011 (ip), vehicle: methylcellulose (MC)); 114 % of control (dose: 62.0 mg/kg/injection, schedule: Q01DX011 (ip), vehicle: methylcellulose (MC)); 45 % of control (dose: 125.0 mg/kg/injection, schedule: Q01DX011 (ip), vehicle: methylcellulose (MC)).

By T/C is commonly meant the ratio of treated to control.
